Key:
human RORγt [1] = target: T1, human RORγt (Homo sapiens, UniProt P51449); assay: RORE Luciferase/RORγt transactivation assay; type: cell-based; set-up: the full-length cDNA of human RORγt; V5-His (encoded by the vector); expressed in transfected cells; host or cells: COS-7 (monkey kidney); conditions: COS-7 cells transfected with human IL-17 promoter luciferase reporter and RORγt plasmid, 20 h; read-out: IC50, RORγt activity inhibition (luciferase reporter)
T1 sequence (P51449 1-497 isoform P51449-2): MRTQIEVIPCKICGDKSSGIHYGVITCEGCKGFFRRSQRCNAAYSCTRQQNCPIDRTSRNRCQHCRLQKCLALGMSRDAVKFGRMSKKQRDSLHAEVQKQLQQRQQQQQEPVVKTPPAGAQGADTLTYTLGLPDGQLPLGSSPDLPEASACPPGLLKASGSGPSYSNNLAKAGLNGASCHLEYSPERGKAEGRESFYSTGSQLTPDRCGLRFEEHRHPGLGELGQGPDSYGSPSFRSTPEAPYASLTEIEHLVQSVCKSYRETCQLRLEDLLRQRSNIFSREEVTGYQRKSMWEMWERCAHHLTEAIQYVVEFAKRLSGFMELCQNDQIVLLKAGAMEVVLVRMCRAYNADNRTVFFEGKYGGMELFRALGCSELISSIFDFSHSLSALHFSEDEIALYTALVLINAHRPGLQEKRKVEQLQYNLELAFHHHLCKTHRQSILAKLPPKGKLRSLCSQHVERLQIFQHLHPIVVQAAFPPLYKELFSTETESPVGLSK
Description: It is well known that RORγ binds to a conserved non-coding sequence (CNS) enhancer element in the IL-17 promoter.
Culture medium was changed every 2 days.
The 4.3 Kb human IL-17 promoter containing the RORγ-specific CNS enhancer element was PCR amplified from human genomic DNA and cloned into a pGL3-TKLuc2Cp reporter plasmid.
The luciferase reporter plasmid and the RORγt overexpression plasmid were transfected into COS-7 cell line using 4 μLJetPEI™/μg of DNA. Briefly, 150 ng of DNA (ration 1/2 between RORE-Tk Luc2Cp and cDNA RORγt or the empty vector for the negative control) was served to transfect adherent COS-7 cells in a […] culture flask, in complete medium (see cos-7 cell line culture).
Cells were then detached (using trypsin) and washed by centrifugation at 300 g for 10 minutes. Cell pellet was resuspended in serum free/phenol red free DMEM and seeded in 384 well plates at a density of 10000 cells/well and then incubated for 4 h at 37° C.
Compounds were dissolved in 100% DMSO to obtain 10 mM stock solutions. For each compound, test concentrations were diluted in serum free/phenol red free DMEM using the Genesis Freedom 200™ (TECAN) and added to the cells to obtain a 0.3% DMSO final concentration (in a final volume of 40 μL per well).
The luciferase activity was then measured with 40 μL/well steady-Glo Luciferase assay system (Promega, Madison, Wis.) and after incubation at room temperature for 30 minutes. The luminescence was estimated using the Ultra384 reader (TECAN). Data were collected and analyzed using GraphPad Prism software (GraphPad Software V5.02, San Diego Calif. USA). IC50 in μM and Emax in % were reported for each compound.

[2] = target: T2, RORγt ligand-binding domain (RORγt-LBD) (Homo sapiens, UniProt P51449); assay: Time-resolved FRET (TR-FRET) RORγt coactivator assay; type: biochemical; conditions: GST-RORγ-LBD, biotinylated RIP140 peptide, 2 hours; read-out: IC50, coactivator-RORγt binding inhibition (TR-FRET)
T2 construct: 20 nM recombinantly expressed RORγ-LBD fused to GST
T2 sequence (P51449 269-508 limits assumed): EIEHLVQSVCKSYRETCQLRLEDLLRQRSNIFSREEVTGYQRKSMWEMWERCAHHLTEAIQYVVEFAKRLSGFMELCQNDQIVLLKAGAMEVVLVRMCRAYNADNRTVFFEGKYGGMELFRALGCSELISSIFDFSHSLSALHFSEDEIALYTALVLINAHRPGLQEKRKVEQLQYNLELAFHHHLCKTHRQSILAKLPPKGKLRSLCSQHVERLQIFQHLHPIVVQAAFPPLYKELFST
Excerpt: Time-resolved FRET (TR-FRET) RORγt coactivator assay was used to identify RORγ modulator compounds with ligand-dependent coactivator displacement. The assay uses a d2-labeled anti-GST antibody, synthetic N-terminally biotinylated peptide which is derived from nuclear receptor coactivator protein RIP140, and a RORγt ligand-binding domain (RORγt-LBD) that is tagged with glutathione-S-transferase (GST). The influence of compounds on the RORγ-peptide interaction relies on the binding dependent energy transfer from a donor to an acceptor fluorophor attached to the binding partner of interest. […] For reduction of background from compound fluorescence, TR-FRET method makes use of generic fluorophore labels and time resolved detection.
The assays were done in a final volume of 20 μl in a 384 well plate in a CHAPS buffer (2 mM CHAPS; 1 mM DTT, 2 mM EDTA; 0.1% BSA), containing 20 nM recombinantly expressed RORγ-LBD fused to GST, 30 nM N-terminally biotinylated peptide, 1 nM streptavidin-terbium conjugate and 20 nM d2 labeled-anti-GST. Test compounds were diluted using 10 mM stock solution. The range of the final compound concentrations used in this test was from 0.3 nM to 30 μM (logarithmic scale). DMSO content of the samples was kept at 1%. The assay was equilibrated for 2 hours in the dark at room temperature in 384 well plates (Falcon). The signal was detected by an Ultra384 reader (TECAN). […] Compounds that promote coactivator displacement induce a concentration-dependent decrease in time-resolved fluorescent signal. Data were collected and analyzed using GraphPad Prism software (GraphPad Software V5.02, San Diego Calif. USA). IC50 in μM and Emax in % were reported for each compound.

human RORγt [3] = target: T1, human RORγt; assay: IL-17 secretion from EL4 murine lymphoma cells overexpressing human RORγt; type: cell-based; conditions: human RORγt-transfected EL4 cells, PMA and ionomycin stimulation; read-out: IC50, inhibition of IL-17 secretion
Description: Murine EL-4 lymphoma cell line overexpressing human RORγt was used in this functional assay to assess compound ability to inhibit IL-17 cytokine secretion.
EL-4 cells are maintained in a standard culture medium RPMI supplemented with 10% fetal calf serum, 1% sodium pyruvate, 1% essential amino acids and 1% antibiotics at 37° C. in a humidified atmosphere of 5% CO02 and 95% air. Culture medium was changed every 2 days. EL4 cells were transfected with a plasmid encoding hRORγt (sequence identical to published sequence NM 001001523). […] Briefly, 1 μg of DNA/1 million cells was served to transfect EL-4 cells. Cell/DNA suspension was transferred into certified cuvette and the electroporation of RORγt plasmid was carried out using appropriate Nucleofector® program.
Cells were seeded in 96 well plates at a density of 150000 cells/I well then treated with compounds of this invention at indicated concentrations and incubated for 24 hours at 37° C. in a humidified atmosphere of 5% CO2 and 95% air. EL-4 cells were pretreated with test compounds (RORγ modulators) and stimulated with PMA (10 ng/mL) and ionomycin (1 μM final concentration) in the presence of test compound concentrations for additional 24 h at 37° C. in a humidified atmosphere of 5% CO2 and 95% air. Subsequently, supernatants were collected (after centrifugation at 300 g for 10 minutes) to determine the concentrations of IL-17 by HTRF (CisBio, France) or ELISA (R&D Systems Europe) according to the manufacturer's protocols.

[4] = system: patients with moderate to severe psoriasis; conditions: cited from earlier work

IC50 (human RORγt [1]) [µM] | IC50 [2] [µM] | IC50 (human RORγt [3]) [µM] | SMILES | reduction in the Psoriasis Area Severity Index (PASI) score relative to placebo ([4]; 350 mg dose group) [%] | placebo-adjusted PASI score reduction ([4]; 700 mg dose group) [%]
0.1 to 1 | < 0.1 | 0.1 to 1 | CC(=O)N1CCN(c2ccc(CC(=O)NC(c3ccccc3)c3ccccc3N3CCCCC3)cc2)CC1 (centres unmarked) [Cpd.1, 2-[4-(4-acetylpiperazin-1-yl)phenyl]-N-{phenyl[2-(piperidin-1-yl)phenyl]methyl}acetamide] |  | 
0.1 to 1 | < 0.1 | 0.1 to 1 | COc1ccc(C(NC(=O)Cc2cc(N3CCN(C(C)=O)CC3)ccc2C)c2ccc(C)o2)c(N2CCCCCC2)c1 (centres unmarked) [Cpd.11, 2-[5-(4-acetylpiperazin-1-yl)-2-methylphenyl]-N-{[2-(azepan-1-yl)-4-methoxyphenyl](5-methylfuran-2-yl)methyl}acetamide] |  | 
0.1 to 1 | < 0.1 | 0.1 to 1 | Cc1ccc(C(NC(=O)Cc2cc(N3CCN(S(C)(=O)=O)CC3)ccc2F)c2ccc(C)o2)c(N2CCCCC2)c1 (centres unmarked) [Cpd.16, 2-[2-fluoro-5-(4-methanesulfonylpiperazin-1-yl)phenyl]-N-{[4-methyl-2-(piperidin-1-yl)phenyl](5-methylfuran-2-yl)methyl}acetamide] |  | 
< 0.1 | < 0.1 | < 0.1 | CC(=O)N1CCN(c2cccc(CC(=O)NC(c3ccc(C)o3)c3ccc(C)cc3N3CCCCC3)c2)CC1 (centres unmarked) [Cpd.20, 2-[3-(4-acetylpiperazin-1-yl)phenyl]-N-{[4-methyl-2-(piperidin-1-yl)phenyl](5-methylfuran-2-yl)methyl}acetamide] |  | 
0.1 to 1 | < 0.1 | 0.1 to 1 | COc1ccc(C(NC(=O)Cc2cc(N3CCN(C(C)=O)CC3)ccc2F)c2ccc(C)o2)c(N2CCCCCC2)c1 (centres unmarked) [Cpd.14, 2-[5-(4-acetylpiperazin-1-yl)-2-fluorophenyl]-N-{[2-(azepan-1-yl)-4-methoxyphenyl](5-methylfuran-2-yl)methyl}acetamide] |  | 
< 0.1 | < 0.1 | 0.1 to 1 | Cc1ccc(C(NC(=O)Cc2ccc(N3CCC(S(C)(=O)=O)CC3)cc2)c2ccc(C)o2)c(N2CCCCC2)c1 (centres unmarked) [Cpd.18, 2-[4-(4-methanesulfonylpiperidin-1-yl)phenyl]-N-{[4-methyl-2-(piperidin-1-yl)phenyl](5-methylfuran-2-yl)methyl}acetamide] |  | 
0.1 to 1 | < 0.1 | 1 to 10 | CC(=O)N1CCN(c2ccc(F)c(CC(=O)NC(c3ccc(C)o3)c3ccc(C)cc3C)c2)CC1 (centres unmarked) [Cpd.12, 2-[5-(4-acetylpiperazin-1-yl)-2-fluorophenyl]-N-[(2,4-dimethylphenyl)(5-methylfuran-2-yl)methyl]acetamide] |  | 
0.1 to 1 | < 0.1 | 0.1 to 1 | COc1ccc(C(NC(=O)Cc2cc(N3CCN(C(C)=O)CC3)ccc2F)c2ccccc2)c(N2CCCCCC2)c1 (centres unmarked) [Cpd.17, 2-[5-(4-acetylpiperazin-1-yl)-2-fluorophenyl]-N-{[2-(azepan-1-yl)-4-methoxyphenyl](phenyl)methyl}acetamide] |  | 
 |  |  | CCS(=O)(=O)c1ccc(CNC(=O)c2cnc3c(c2)CN(C[C@H]2CC[C@H](C(F)(F)F)CC2)[C@H]3C(C)C)nc1 [VTP-43742] | 24 | 30
< 0.1 | < 0.1 | 0.1 to 1 | CC(=O)N1CCN(c2ccc(C)c(CC(=O)NC(c3ccccc3)c3ccc(C)cc3N3CCCC3)c2)CC1 (centres unmarked) [Cpd.3, 2-[5-(4-acetylpiperazin-1-yl)-2-methylphenyl]-N-{[4-methyl-2-(pyrrolidin-1-yl)phenyl](phenyl)methyl}acetamide] |  | 
< 0.1 | < 0.1 | < 0.1 | CC(=O)N1CCN(c2ccc(C)c(CC(=O)NC(c3ccc(C)o3)c3ccc(C)cc3N3CCCCC3)c2)CC1 (centres unmarked) [Cpd.10, 2-[5-(4-acetylpiperazin-1-yl)-2-methylphenyl]-N-{[4-methyl-2-(piperidin-1-yl)phenyl](5-methylfuran-2-yl)methyl}acetamide] |  | 
